Test in all cases: CellTiter-Glo in vitro cell proliferation assay, Example 8
Holding throughout (format): cell-based, Human
(In ATP-based viability assays light output follows the ATP content of the culture.)

One test has as its system RPMI-8226 cells. Conditions: RPMI-8226, HMM. Here is the method: (§1) Each proliferation assay was carried out as follows. The test cells were plated in growth media using a 384-well microtiter plate at 50 μL volume. The cells were incubated for 24 hours at 37° C. in a humidified incubator. After 24 hours of incubation, the test compounds were added to the test wells in DSMO solvent, at concentrations ranging from 0.0075-100 μM. Control wells received equal volumes of DSMO, without compound. Following drugging, the cells were incubated for 72 hours at 37° C. in a humidified incubator. After this exposure, 100 μL of a 1:1 mixture of sterile water and CellTiter-Glo® reagent (Promega) was added to each well. The plates were then incubated for 60 minutes at room temperature, followed by recording the luminescence value of each well using a luminometer as a measure of cell proliferation.
In this example, different cell lines were subjected to in vitro cell proliferation assays as described in Example 8. In particular, the cell lines are identified in the following Table 17, and the tissue types were: Pancreatic; Endometrial; Triple-Negative Breast Cancer (TNBC); Non-Small-Cell Lung Carcinoma (NSCLC); Ovarian; Renal Cell Carcinoma (RCC); Cervical-Squamous Cell; […] (H&N-Squamous Cell); Germinal Center B Cell-Like Novo Diffuse Large B-Cell Lymphoma (GCB-DLBCL); Activated B-Cell—Diffuse Large B Cell Lymphoma (ABC-DLBCL); Human Myeloma; Human Myeloma Cell Line Lymphocyte-Like; Human Myeloma Cell Line Lymphocyte-Like Myeloma Pleural Effusion Infiltration; Human Multiple Myeloma; Plasma Cell Leukemia/Multiple Myeloma Epstein-Barr Nuclear Antigen-Negative (EBNA-Negative) and to Express mRNA for Proto-Oncogene B-Cell Lymphoma 2 (BCL2); Multiple Myeloma from Peripheral Blood Type IgD Lmabda.

The next test has as its system SiHA cells. Conditions: Cervical - SC, read-out: Mean IC50. As to the method: (§2) In this Example, in vitro cell proliferation assays were performed using: (1) Human Myeloma tumor cell lines; (2) Human Lymphoma tumor cell lines; (3) Solid Human tumor cell lines; and (4) Parental, Lenalidomide resistant and Bortezomib resistant Jeko-1 Mantle cell Lymphoma tumor cell lines. The compounds tested were three diharmaline compounds, namely the 518B562 (or simply 562), 560, and 561 compounds. In addition, a monoharmaline product designated as 518F014 was also tested. This monoharmaline product had the following structure:
as §1

In a further test the test system is KMS-34 cells. Conditions: KMS-34, HMCL-B; read-out: Mean IC50. As to the method:
as §2, §1

Another test deals with L363 cells. The settings on record: L363, PCL/MM; read-out: Mean IC50. Here is the method: as §2, §1
For the next test, the system named is MOLP-8 cells. The settings on record: MOLP-8, MM IgD; read-out: Mean IC50. As to the method: as §2, §1
A further test deals with HEC-1a cells. The settings on record: Endometrial, read-out: Mean IC50. Here is the method: as §2, §1
For the next test, the system named is H1650 (EGFR mut) cells. Conditions: NSCLC, read-out: Mean IC50. As to the method:
as §2, §1

Another test deals with AN3CA cells. The settings on record: Endometrial, read-out: Mean IC50. Here is the method: as §2, §1
The subject of a further test is MDA-MB-231 cells. The settings on record: MDA-MB-231, TNBC; read-out: Mean IC50. Here is the method: as §2, §1
The next test deals with H1975 (EGFR mut) cells. Conditions: NSCLC, read-out: Mean IC50. Here is the method:
as §2, §1

A further test relates to KMM-1 cells. The settings on record: KMM-1, HMCL-A; read-out: Mean IC50. Here is the method:
as §2, §1

A further test has as its system A2780CP cells. Conditions: Ovarian, read-out: Mean IC50. As to the method:
as §2, §1

The subject of a further test is A2780 cells. Conditions: A2780, Ovarian; read-out: Mean IC50. Here is the method:
as §2, §1

The test system of the next test is A498 cells. The settings on record: A498, RCC; read-out: Mean IC50. Here is the method: as §2, §1
The next test deals with JIM1 cells. Conditions: JIM1, HMCL; read-out: Mean IC50. Here is the method: as §2, §1
The test system of another test is DOHH-2 cells. The settings on record: DoHH-2, GCB-DLBCL; read-out: Mean IC50. As to the method:
as §2, §1

For another test, the system named is MIA PaCa-2 cells. Conditions: MIA PaCa-2, Pancreatic; read-out: Mean IC50. Here is the method: as §2, §1
A further test relates to ASPC-1 cells. The settings on record: ASPC-1, Pancreatic; read-out: Mean IC50. Here is the method: as §2, §1
In a further test the test system is BxPC-3 cells. The settings on record: BxPC-3, Pancreatic; read-out: Mean IC50. Here is the method:
as §2, §1

Another test relates to OCI-LY3 cells. Conditions: OCI-LY3, ABC-DLBCL; read-out: Mean IC50. As to the method: as §2, §1
Another test relates to FaDu cells. Conditions: H&N - SC, read-out: Mean IC50. As to the method: as §2, §1
A further test concerns MDA-MB-468 cells. The settings on record: MDA-MB-468, TNBC; read-out: Mean IC50. As to the method: as §2, §1
The test system of another test is HCC70 cells. The settings on record: HCC70, TNBC; read-out: Mean IC50. As to the method:
as §2, §1

The structures appear in SMILES notation.

For orientation: IC50 means the midpoint of a concentration-inhibition curve. Take `COc1ccc2c3c([nH]c2c1)C(CC(CC1=NCCc2c1[nH]c1cc(OC)ccc21)c1ccccc1OC)=NCC3` [compound 1]: the IC50 with RPMI-8226 cells is 1.87 µM; in the test with SiHA cells it was 9.44 µM; in the test with KMS-34 cells, 4.15 µM; in the test with L363 cells, 2.62 µM; in the test with MOLP-8 cells it was 1.98 µM; in the test on HEC-1a cells, 9.27 µM. Further, the IC50 was 8.18 µM with H1650 (EGFR mut) cells; 2.5 µM with AN3CA cells; 5.72 µM in the test with MDA-MB-231 cells; 6.54 µM in the test with H1975 (EGFR mut) cells; 4.2 µM in the test with KMM-1 cells; 4.45 µM in the test on A2780CP cells. Also, the IC50 in the test on A2780 cells was determined as 5.9 µM; in the test with A498 cells it was 9.91 µM; in the test with JIM1 cells it was 4.51 µM; in the test on DOHH-2 cells it was 2.25 µM; with MIA PaCa-2 cells, 3.67 µM; in the test on ASPC-1 cells, 6.44 µM. For the same molecule, the IC50 was 4.3 µM in the test with BxPC-3 cells; 3.42 µM with OCI-LY3 cells; 5.36 µM in the test on FaDu cells; 4.39 µM in the test with MDA-MB-468 cells; 8.02 µM in the test with HCC70 cells.
With `CCOc1cc(C(CC2=NCCc3c2[nH]c2cc(OC)ccc32)CC2=NCCc3c2[nH]c2cc(OC)ccc32)ccc1O` [compound 2], the IC50 with RPMI-8226 cells was found to be 8.51 µM; in the test with SiHA cells, 17.1 µM; in the test with KMS-34 cells, 9.35 µM; with L363 cells it was 6.26 µM; in the test with MOLP-8 cells, 5.3 µM; in the test with HEC-1a cells it was 21.6 µM. Also, the IC50 with H1650 (EGFR mut) cells came to 21.6 µM; in the test on AN3CA cells, 6.72 µM; in the test with MDA-MB-231 cells it was 14.3 µM; in the test on H1975 (EGFR mut) cells, 19.5 µM; with KMM-1 cells it was 9.4 µM; with A2780CP cells it was 20.2 µM. In addition, the IC50 with A2780 cells came out at 16.9 µM; in the test on A498 cells, 16.8 µM; with JIM1 cells it was 11.5 µM; with DOHH-2 cells it was 3.66 µM; in the test with MIA PaCa-2 cells it was 7.51 µM; with ASPC-1 cells, 15.2 µM. Besides, the IC50 in the test on BxPC-3 cells was 7.88 µM; in the test on OCI-LY3 cells, 6.58 µM; with FaDu cells, 13.5 µM; in the test with MDA-MB-468 cells it was 9.9 µM; with HCC70 cells it was 21.2 µM.
In the case of `COc1ccc2c3c([nH]c2c1)C(CC(CC1=NCCc2c1[nH]c1cc(OC)ccc21)c1ccc(OC)c(OC)c1)=NCC3` [compound 4], the IC50 was 4.09 µM in the test with RPMI-8226 cells; 17.1 µM in the test with SiHA cells; 4.75 µM in the test with KMS-34 cells; 6.38 µM with L363 cells; 5.03 µM with MOLP-8 cells; 16.3 µM in the test on HEC-1a cells. Besides, the IC50 came out at 13.6 µM with H1650 (EGFR mut) cells; 5.1 µM with AN3CA cells; 12 µM in the test with MDA-MB-231 cells; 14.1 µM with H1975 (EGFR mut) cells; 6.32 µM with KMM-1 cells; 10.8 µM in the test with A2780CP cells. The IC50 in the test on A2780 cells was found to be 11.5 µM; in the test with A498 cells, 12.7 µM; in the test with JIM1 cells it was 6.89 µM; in the test on DOHH-2 cells, 3.17 µM; in the test on MIA PaCa-2 cells, 4.37 µM; in the test with ASPC-1 cells, 11 µM. The IC50 in the test on BxPC-3 cells is 6.05 µM; in the test with OCI-LY3 cells it was 5.57 µM; in the test with FaDu cells it was 7.69 µM; in the test on MDA-MB-468 cells, 6.27 µM; in the test on HCC70 cells, 11.6 µM.
For `COc1ccc2c3c([nH]c2c1)C(CC(CC1=NCCc2c1[nH]c1cc(OC)ccc21)c1cc(OC)c(O)c([N+](=O)[O-])c1)=NCC3` [compound 5], the IC50 with RPMI-8226 cells came out at 19.3 µM; with SiHA cells it was 36.9 µM; with KMS-34 cells it was 17.4 µM; in the test on L363 cells, 22.2 µM; in the test with MOLP-8 cells, 14.4 µM; in the test on HEC-1a cells, 27 µM. The IC50 in the test with H1650 (EGFR mut) cells stood at 23.4 µM; in the test with AN3CA cells, 11.4 µM; in the test on MDA-MB-231 cells, 23.7 µM; with H1975 (EGFR mut) cells it was 28.1 µM; in the test with KMM-1 cells, 20.3 µM; with A2780CP cells, 24.6 µM. Further, the IC50 in the test with A2780 cells was found to be 24.1 µM; in the test on A498 cells it was 22.8 µM; in the test on JIM1 cells, 17.7 µM; in the test on DOHH-2 cells it was 9.31 µM; in the test on MIA PaCa-2 cells, 19.9 µM; in the test on ASPC-1 cells, 15.7 µM. Besides, the IC50 worked out at 21.2 µM in the test on BxPC-3 cells; 12.3 µM with OCI-LY3 cells; 22.3 µM in the test on FaDu cells; 14.7 µM in the test with MDA-MB-468 cells; 15.1 µM in the test on HCC70 cells.
Consider `C=C(C)C1CC=C(C(CC2=NCCc3c2[nH]c2cc(OC)ccc32)CC2=NCCc3c2[nH]c2cc(OC)ccc32)CC1` (centres unmarked) [compound 28], for which the half-inhibitory concentration (IC50) in the test with RPMI-8226 cells was 3.5 µM; in the test on SiHA cells, 13.3 µM; in the test on KMS-34 cells, 4.44 µM; in the test on L363 cells, 4.75 µM; in the test with MOLP-8 cells, 3.71 µM; in the test with HEC-1a cells, 10.6 µM. The IC50 with H1650 (EGFR mut) cells was 11.3 µM; in the test with AN3CA cells it was 4.49 µM; in the test on MDA-MB-231 cells it was 10.1 µM; in the test on KMM-1 cells, 6.43 µM; with A2780CP cells it was 7.02 µM; with A498 cells, 16.3 µM. The IC50 with JIM1 cells turned out to be 8.08 µM; in the test with DOHH-2 cells it was 2.5 µM; in the test on MIA PaCa-2 cells, 4.51 µM; in the test with ASPC-1 cells, 7.22 µM; with BxPC-3 cells it was 6.58 µM; with OCI-LY3 cells, 6.17 µM. Further, the results for the IC50 in the test on FaDu cells, in the test with MDA-MB-468 cells and with HCC70 cells were 5.64 µM, 8.43 µM and 11.9 µM, respectively.
With `COc1ccc2c3c([nH]c2c1)C(CC(CC1=NCCc2c1[nH]c1cc(OC)ccc21)c1ccc(C(C)C)cc1)=NCC3` [compound 29], the IC50 in the test on RPMI-8226 cells was 4.44 µM; with SiHA cells, 46.9 µM; in the test on KMS-34 cells it was 4.4 µM; in the test with L363 cells, 11.4 µM; in the test with MOLP-8 cells, 5.89 µM; in the test with H1650 (EGFR mut) cells it was 13.9 µM. The IC50 in the test on AN3CA cells came to 8.07 µM; in the test with MDA-MB-231 cells, 13.9 µM; in the test with H1975 (EGFR mut) cells, 13.6 µM; in the test on KMM-1 cells, 7.71 µM; in the test on A2780CP cells, 11.5 µM; in the test with A2780 cells it was 12.1 µM. The IC50 in the test on A498 cells is 42.5 µM; in the test with JIM1 cells, 16.6 µM; in the test on DOHH-2 cells, 2.09 µM; in the test with MIA PaCa-2 cells, 11.3 µM; in the test with ASPC-1 cells, 10.8 µM; in the test on BxPC-3 cells it was 11.5 µM. In addition, the values for the IC50 in the test with OCI-LY3 cells, in the test with FaDu cells and with HCC70 cells were 9.63 µM, 11.4 µM and 40 µM, respectively.

(Values after patent publication US12129265B2, “Therapeutic agents and uses thereof” (Ankh Life Sciences Limited, priority 2020, dated 2024).)
